These results are taken from US20140051575A1 (priority 2011, published 2014).

One series concerns Plasmopara viticola. The series is described as follows: Plasmopara test (grapevines)/preventive. The format is in vivo. Conditions: preventive spray, 10 ppm of active ingredient, evaluated 6 days after inoculation, 0% = untreated control, 100% = no disease. As to the method: To produce a suitable preparation of active compound, 1 part by weight of active compound is mixed with the stated amounts of solvent and emulsifier, and the concentrate is diluted with water to the desired concentration.
To test for preventive activity, young plants are sprayed with the preparation of active compound at the stated rate of application. After the spray coating has dried on, the plants are inoculated with an aqueous spore suspension of Plasmopara viticola and then remain for 1 day in an incubation cabinet at approximately 20° C. and a relative atmospheric humidity of 100%. The plant is subsequently placed for 4 days in a greenhouse at approximately 21° C. and a relative atmospheric humidity of approximately 90%. The plants are then misted and placed for 1 day in an incubation cabinet.
The test is evaluated 6 days after the inoculation. 0% means an efficacy which corresponds to that of the untreated control, while an efficacy of 100% means that no disease is observed.

Series [1] is described as follows: Measurement of logP values by HPLC on reversed phase columns (EEC directive 79/831 Annex V.A8). The format is physicochemical. The conditions noted are these: pH 2.7, 0.1% formic acid in water / acetonitrile gradient, calibration with alkan-2-ones. The method, then: Measurement of logP values was performed according EEC directive 79/831 Annex V.A8 by HPLC (High Performance Liquid Chromatography) on reversed phase columns with the following methods:
Measurement of LC-MS was done at pH 2.7 with 0.1% formic acid in water and with acetonitrile (contains 0.1% formic acid) as eluent with a linear gradient from 10% acetonitrile to 95% acetonitrile.
Calibration was done with not branched alkan2-ones (with 3 to 16 carbon atoms) with known logP-values (measurement of logP values using retention times with linear interpolation between successive alkanones). lambda-maX-values were determined using UV-spectra from 200 nm to 400 nm and the peak values of the chromatographic signals.

Another series concerns Pythium ultimum. Put plainly: Pythium test (cotton)/seed treatment. It counts as in vivo. The conditions noted are these: 50 g/dt seed of active ingredient, greenhouse 7 days, 100% = all seedlings have emerged. The method, then: The test is performed under greenhouse conditions.
Cotton seeds, treated with the active compound or compound combinations, solved in N-methyl-2-pyrrolidon and diluted with water to the desired dosages, were sown in 6*6 cm pots containing 4 cm of a 1:1 mix of steamed field soil and sand.
Perlite was incubated with mycelium fragments of Pythium ultimum. 1 ml of infected perlite was scattered between the treated cotton seeds. Seeds were then covered by light expanded clay aggregate. Pots were incubated in the greenhouse 7 days at 20° C. and 80% relative humidity.
Assessment consisted of counting of emerged seedlings. 0% means an efficacy which corresponds to that of the control, while an efficacy of 100% means that all seedlings have emerged.

The test system of a further series is Phytophthora infestans. The format is in vivo. Conditions: tomato plants, preventive spray, 500 ppm of active ingredient, evaluated 7 days after inoculation; 0% = untreated control, 100% = no disease.

For orientation: Log P means a log measure of how a compound divides between an organic and an aqueous phase. The low end stands for lower lipophilicity, the high end for higher lipophilicity.

Regarding `CC(OCC1CC1)C(=O)Nc1cccc(CON=C(c2ccccc2)c2nnnn2C)n1` (stereo not drawn) [Example 2], the Eff. % in the series on Plasmopara viticola was determined as 95%; with Pythium ultimum, 100%. The “Log P” value in series [1] turned out to be 3.55.

As to `CC(OCC1CC1)C(=O)Nc1nc(CON=C(c2ccccc2)c2nnnn2C)cs1` (stereo not drawn) [Example 14], the Eff. % is given as 97% with Plasmopara viticola, 100% in the series on Phytophthora infestans and 100% in the series with Pythium ultimum. For the same molecule, the “Log P” value in series [1] was determined as 3.29.

Regarding `Cn1nnnc1C(=NOCc1csc(NC(=O)COCC2CCCCC2)n1)c1ccccc1` [Example 17], the Eff. % was found to be 94% in the series with Plasmopara viticola and 100% with Phytophthora infestans. For the same molecule, the “Log P” value in series [1] was 4.29.

In the case of `CC(OCC1CCCC1)C(=O)Nc1nc(CON=C(c2ccccc2)c2nnnn2C)cs1` (stereo not drawn) [Example 19], the Eff. % worked out at 91% with Plasmopara viticola and 100% with Phytophthora infestans. Besides, the “Log P” value in series [1] is 4.25.

Take `CC(OCC1CCC1)C(=O)Nc1nc(CON=C(c2ccccc2)c2nnnn2C)cs1` (stereo not drawn) [Example 22]: the Eff. % stood at 88% with Plasmopara viticola and 100% in the series on Phytophthora infestans. Besides, the lipophilicity (Log P) in series [1] worked out at 3.83.

In the case of `Cc1nnnn1C(=NOCc1cccc(NC(=O)C(C)OCC2CC2)n1)c1ccccc1` (stereo not drawn) [Example 24], the Eff. % came out at 81% in the series on Plasmopara viticola and 100% in the series with Phytophthora infestans. For the same molecule, the “Log P” value in series [1] is listed as 3.63.

With `Cc1nnnn1C(=NOCc1cccc(NC(=O)COCC2CCC2)n1)c1ccccc1` [Example 25], the Eff. % is given as 80% in the series with Plasmopara viticola and 97% with Phytophthora infestans. For the same molecule, in series [1], the “Log P” value is recorded as 3.92.

In the case of `Cc1nnnn1C(=NOCc1csc(NC(=O)C(C)OCC2CC2)n1)c1ccccc1` (stereo not drawn) [Example 34], the figures for the Eff. % in the series with Plasmopara viticola, in the series with Phytophthora infestans and in the series with Pythium ultimum were 94%, 100% and 92%, respectively. The “Log P” value in series [1] is 3.35.

In the case of `Cc1nnnn1C(=NOCc1csc(NC(=O)COCC2CCC2)n1)c1ccccc1` [Example 35], the Eff. % in the series with Plasmopara viticola was found to be 91%; with Phytophthora infestans, 100%. Moreover, the “Log P” value in series [1] came out at 3.59.

For `Cc1nnnn1C(=NOCc1csc(NC(=O)C(C)OCC2CCC2)n1)c1ccccc1` (stereo not drawn) [Example 42], the Eff. % was found to be 93% with Plasmopara viticola and 100% in the series with Phytophthora infestans. Besides, the “Log P” value in series [1] worked out at 3.9.

As for `CC(C)CCOCC(=O)Nc1nc(CON=C(c2ccccc2)c2nnnn2C)cs1` [Example 45], the values for the Eff. % in the series with Plasmopara viticola and in the series on Phytophthora infestans were 91% and 100%, respectively. Moreover, the “Log P” value in series [1] stood at 3.8.

Regarding `Cn1nnnc1C(=NOCc1cccc(NC(=O)COCc2ccccc2)n1)c1ccccc1` [Example 48], the Eff. % turned out to be 96% in the series on Plasmopara viticola and 95% in the series with Phytophthora infestans. In addition, the “Log P” value in series [1] is recorded as 3.63.

As to `Cn1nnnc1C(=NOCc1csc(NC(=O)COCc2ccccc2)n1)c1ccccc1` [Example 50], the Eff. % in the series on Plasmopara viticola is 100%; in the series on Phytophthora infestans it was 100%; in the series on Pythium ultimum it was 93%. For the same molecule, the “Log P” value in series [1] stood at 3.37.

As to `CC(OCC1CCCO1)C(=O)Nc1nc(CON=C(c2ccccc2)c2nnnn2C)cs1` (stereo not drawn) [Example 60], the Eff. % in the series with Plasmopara viticola is given as 85%; in the series with Phytophthora infestans, 100%. In series [1], the “Log P” value was 3.15.

As for `CC(SCc1ccccc1)C(=O)Nc1nc(CON=C(c2ccccc2)c2nnnn2C)cs1` (stereo not drawn) [Example 71], the Eff. % in the series with Plasmopara viticola is 82%; in the series on Phytophthora infestans, 100%. Also, the “Log P” value in series [1] is 3.8.

For the molecule `CC(SC1CCCCC1)C(=O)Nc1nc(CON=C(c2ccccc2)c2nnnn2C)cs1` (stereo not drawn) [Example 74], the values for the Eff. % with Plasmopara viticola and in the series on Phytophthora infestans were 82% and 100%, respectively. Further, in series [1], the “Log P” value worked out at 4.12.

Regarding `Cc1ccccc1CSCC(=O)Nc1nc(CON=C(c2ccccc2)n2nnnc2C)cs1` [Example 88], the Eff. % with Plasmopara viticola turned out to be 84%; in the series with Phytophthora infestans it was 100%. Also, in series [1], the “Log P” value amounted to 4.06.

For `COC(C)CC(CC(=O)Nc1cccc(CON=C(c2ccccc2)c2nnnn2C)n1)OC` (stereo not drawn) [Example 96], the Eff. % amounted to 78% with Plasmopara viticola and 100% with Phytophthora infestans. For the same molecule, the “Log P” value in series [1] was determined as 2.9.

On to `Cn1nnnc1C(=NOCc1cccc(NC(=O)OCCCOC2CCCC2)n1)c1ccccc1` [Example 98], for which the Eff. % in the series with Plasmopara viticola is given as 81%; in the series with Phytophthora infestans, 100%. Besides, the “Log P” value in series [1] turned out to be 4.14.
